Counter-ions that a name gives are not always drawn.
Tested on: HDMEC cells
Assay: Detachment effect on HDMEC endothelial cells
Format: cell-based, Human
Settings: 1 μM, treatment for two hours
Description: A test to determine the detachment of endothelial cells was established in order to select the products on the basis of their “in vitro” activity. This test for determining the endothelial cell detachment is characterized in that the endothelial cells, inoculated in plates which are coated at the bottom with a binder, e.g., chosen from gelatin, fibronectin or vitronectin, after culturing, are supplemented with a medium containing the test compound, and the cells are then labeled with a fluorescent substance, the cells which become detached are removed by washing and the fluorescence of the remaining cells is counted in a fluorimeter.
This test consists in measuring the detachment of endothelial cells cultured on substrates based on a binder, e.g., chosen from fibronectin, vitronectin and gelatin. One day after inoculating the cells in plates containing 96 wells, for example, the culture medium is replaced with a medium containing the test compound in the absence of serum. The same preparation is prepared six times at three different concentrations ([…]) and the control without addition of antivascular product is prepared six times. After treatment for two hours with the test substance, the cells are labeled with calcein-AM (1.6 μg/ml) in a culture medium supplemented with 0.1% BSA. The cells which become detached are removed by washing with the culture medium containing 0.1% bovine serum albumin; 100 μl of medium are added to each well. The fluorescence of the remaining cells is counted in a fluorimeter. The data obtained are expressed relative to the control (untreated cells).
(§1) The assessment of the detachment of the endothelial cells in vitro is determined in the following way. HDMEC cells (Human Dermal Microvascular Endothelial Cells, Promocell, c-122102) are cultured in an ECGM-MV medium containing 5% fetal calf serum, growth factors (EGF 10 ng/ml, hydrocortisone 1 μg/ml, 0.4% growth supplement with heparin) and antibiotics (amphotericin 50 ng/ml, gentamicin 50 μg/ml). For the detachment test, the HDMECs are inoculated at a rate of 5 000 cells in clear-bottomed 96-well plates (Costar) precoated with fibronectin (10 μg/ml) or vitronectin (1 μg/ml) or gelatin. Twenty-four hours later, the culture medium is replaced with 0.1% BSA ECGM-MV medium containing the indicated products. The test concentrations are 0.1-0.3 and 1 μM for each product. After treatment for two hours, the cells are labeled for 1 hour with calcein (1.6 μg/ml, Molecular Probes) in 0.1% BSA ECGM-MV medium. The detached cells are then removed by washing with 0.1% BSA ECGM-MV medium; 100 μl of medium are added to each well. The fluorescence of the cells which remain attached to the substratum of the well is counted using a fluorimeter, Spectrafluor Plus (Tecan, excitation at 485 nm, and emission at 535 nm). The data are the average of six different samples and are expressed as a percentage of the control (untreated cells).
A cell detachment effect of greater than or equal to 15% is considered as significant.
as §1, with “(amphotericine” for “(amphotericin”, “The detached cells are then removed by washing with 0.1% BSA ECGM-MV medium; 100 μl of medium are added to each well. The fluorescence of the cells which remain attached to the substratum of the well is counted using a fluorimeter, Spectrafluor Plus (Tecan, excitation at 485 nm, and emission at 535 nm). The data are the average of six different samples and are expressed as a percentage of the control (untreated cells).” left out

## COc1cc(C(=O)/C(C)=C/c2ccc3c(ccn3C)c2)cc(OC)c1OC [Example 5, E-2-Methyl-3-(1-methyl-1-H-indol-5-yl)-1-(3,4,5-trimethoxyphenyl)propenone]
  Percentage of detachment of HDMEC cells induced with the compound at a concentration of 1 μM: 32%

## COc1ccc(/C=C(\C)C(=O)c2cc(OC)c(OC)c(OC)c2)cc1NC(=O)[C@@H](N)CO [Example 13, (S)-2-Amino-3-hydroxypropanoic acid {2-methoxy-5-[2-methyl-3-oxo-3-(3,4,5-trimethoxyphenyl)propenyl]phenyl}amide hydrochloride]
  Percentage of detachment of HDMEC cells induced with the compound at a concentration of 1 μM: 31%

— patent US20030153611A1, “1,3-Diarylprop-2-en-1-ones, compositions containing them and use thereof” (AVENTIS PHARMA S.A., priority 2001, published 2003)
